Entries after “also recorded” stand apart in the source; their conditions may differ.
Assays:
[1] = test system: 20S CP; test: standard FRET assay with the standard 20S CP; type: biochemical; details: for % activity increase (increase in 20S proteasome activity): derivative at 25 μM, in triplicate
Method: (§1) Miconazole was discovered as a stimulator of the 20S CP during a screen of the NIH Clinical Collection (NCC), using our previously described FRET assay.^15,21 However, this screen utilized a modulated FRET peptide that substituted an aspartic acid for the phenylalanine. Hydrolysis of the FRET peptide produces a fluorescent signal that can be monitored over time to determine the activity level of the 20S CP. Screening the NCC was performed in 384-well plates on a Tecan plate reader, monitoring the emission wavelength of the FRET peptide over a 1 hr period. Each compound was screened at a final concentration of 25 μM in singlet. A linear regression was performed for the change in fluorescence over time, producing a slope. This value for each compound was then compared to that of a DMSO control (20S CP basal level activity), which was included in triplicate for each plate. Primary hit compounds were determined to be those with a slope 50% greater than that of the DMSO control.
All primary hits were then validated in triplicate, using this reporter and the standard FRET reporter. Following triplicate validation, the hits were purchased from other sources and tested once again for the effect of each on the 20S CP, using the standard FRET assay (FIG. 2A).
Following a mechanistic analysis of miconazole, a dose-response study was performed using the FRET assay and the standard 20S CP.
Each derivative of miconazole is tested at 25 μM in triplicate, using our standard FRET assay. Included in each plate is 25 μM miconazole in triplicate as a positive control. This is also performed to determine how well a derivative compares to the original compound. Derivatives that enhance 20S CP activity are then used for further study.

[2] = test system: 20S CP; test: GFP-α-synuclein fusion cell assay, Western blot for GFP; type: cell-based; details: for alpha-synuclein degradation (quantitation of gel bands): 25 μM for 16 hrs, duplicate
Excerpt: In this study, HEK-293T cells are transiently transfected to express a GFP-α-synuclein construct. α-Synuclein is a known substrate of the 20S CP, whereas GFP is too large and well-folded to enter the gate of the 20S CP for degradation. Therefore, 20S CP-mediated hydrolysis of this construct degrades the α-synuclein portion, leaving behind free GFP. […] After this time period, the cells were lysed and analyzed by Western blot for GFP. Because 20S CP-mediated hydrolysis of this fusion protein can only degrade the α-synuclein portion, the Western blot produces two clear bands, corresponding to the full fusion protein (GFP-α-synuclein) and free GFP. Quantitative analysis is performed for each sample, quantifying the relative densities of each band. The ratio of free GFP to the GFP-α-synuclein fusion was calculated. This calculated ratio of the miconazole-treated cell lysates was compared to the control (DMSO) to determine a change in 20S CP-mediated degradation.
We perform similar studies to those described above for each derivative that warrants further evaluation, including: a mechanistic analysis (FRET assay using the immunoproteasome and 26S proteasome), dose-response study to determine the EC50 of each compound, and the GFP-α-synuclein cell assay to examine the effectiveness of the miconazole derivative in cells. For the cell assay, miconazole is included as a positive control.

[3] = test system: 20S CP; test: screen of the NIH Clinical Collection, FRET assay with modulated FRET peptide; type: biochemical; details: 25 μM, singlet, 1 hr
Method: as §1

[4] = test system: immunoproteasome (iCP); test: FRET assay using the immunoproteasome; type: biochemical; details: 25 μM
Method: (§2) In order to determine the general mechanism of action of miconazole (i.e. allosteric modulator of a hydrolysis activity or “gate-opener”), a series of FRET assays were performed with 25 μM miconazole, using the immunoproteasome (iCP) and the 26S proteasome. The immunoproteasome contains a high degree of similarity to the standard 20S CP (sCP); however, the catalytic β-subunits have been exchanged, leading to a variation in the hydrolysis activities of this protease compared to the standard 20S CP.^22 The gates of both the immunoproteasome and the 20S CP are identical. The 26S proteasome is the standard 20S CP that has been capped by the 19S regulatory particle, which binds the a-ring of the 20S CP and creates an open-gate conformation.^23 Gate-openers of the 20S CP should still impact the activity of the immunoproteasome; however, because the gate is precluded in the 26S proteasome, this type of stimulator is believed to be ineffective with this isoform of the proteasome Similarly, a stimulator that is able to enhance at least one of the catalytic sites of the 20S CP specifically may be ineffective with the immunoproteasome, as this isoform contains different catalytic subunits than the standard 20S CP. This type of stimulator will still impact the activity of the 26S proteasome, as it contains the standard 20S CP.

[5] = test system: 26S proteasome; test: FRET assay using the 26S proteasome; type: biochemical; details: 25 μM
Method: as §2

Structure (SMILES)	% activity increase (increase in 20S proteasome activity) [1] [%]	also measured
Cc1ccc(COC(Cn2cccc2)c2ccc(Cl)cc2Cl)c(C)c1 (stereo not shown) [MD1]	0	
Fc1ccc(COC(Cn2cccc2)c2ccc(Cl)cc2Cl)c(F)c1 (stereo not shown) [MD2]	0	
Clc1ccc(C(Cn2cccc2)OCc2ccccc2)c(Cl)c1 (stereo not shown) [MD3]	0	
Clc1ccc(C(Cn2cccc2)OCc2ccc(Br)cc2Br)c(Cl)c1 (stereo not shown) [MD4]	0	
Clc1ccc(C(Cn2ccnc2)OCc2ccccc2Cl)c(Cl)c1 (stereo not shown) [MD5]	122	
Clc1ccc(C(Cn2ccnc2)OCc2c(Cl)cccc2Cl)c(Cl)c1 (stereo not shown) [MD6]	171	
Clc1ccc(COC(Cn2ccnc2)c2ccc(Cl)cc2Cl)cc1 (stereo not shown) [MD7]	0	
C#CC[n+]1ccn(CC(OCc2ccc(Cl)cc2Cl)c2ccc(Cl)cc2Cl)c1.[Br-] (stereo not shown) [MD8]	0	
CC(C)(C)c1ccc(COC(Cn2ccnc2)c2ccc(Cl)cc2Cl)cc1 (stereo not shown) [MDX1]	248	alpha-synuclein degradation (quantitation of gel bands) [2]: increase in alpha-synuclein degradation
FC(F)(F)c1ccc(COC(Cn2ccnc2)c2ccc(Cl)cc2Cl)cc1 (stereo not shown) [MDX2]	232	alpha-synuclein degradation (quantitation of gel bands) [2]: increase in alpha-synuclein degradation
CC(C)(C)c1ccc(C[n+]2ccn(CC(OCc3ccc(Cl)cc3Cl)c3ccc(Cl)cc3Cl)c2)cc1.[Br-] (stereo not shown) [MDX3]	0	
Clc1ccc(COC(Cn2ccnc2)c2ccc(Cl)cc2Cl)c(Cl)c1 (stereo not shown) [miconazole, reference compound]		effect on standard 20S CP (sCP) activity ([1]; 25 μM): effective stimulator; also recorded: stimulatory effect; EC50 ([1]; read-out: EC50 (effective concentration that induces 50% of its maximum stimulatory effect), dose-response, standard 20S CP (sCP)): 20 µM; increase of 20S CP activity (slope vs DMSO control) [3]: 299%; effect on immunoproteasome (iCP) activity [4]: effective stimulator; also recorded: stimulatory effect; effect on 26S proteasome activity [5]: no effect; enhancement of degradation of α-synuclein over the DMSO control (ratio of free GFP to GFP-α-synuclein) ([2]; HEK-293T cells, 25 μM, 24 hr): 200-300%

— US20220267280A1, “SMALL MOLECULE STIMULATORS OF THE CORE PARTICLE OF THE PROTEASOME” (Purdue Research Foundation, priority 2019, published 2022)
